Assay results reported in patent US20050171214A1, “Medicament for improving the failure of accommodation” (Fuji Chemical Industry Co., Ltd., priority 2001, published 2005).
Where “and” joins values, the source holds several entries; their conditions need not be identical. Equal values may be shown once.

Legend:
Format in all cases: in vivo, human
[1] = test system: VDT workers; experiment: Example 2: eye-accommodability (near point minus far point, D'Acomo apparatus), double-blind vs placebo; settings: mean ± SD, dioptres
Description: (§1) As a control, 13 persons who have not been administered astaxanthin and have not worked in a VDT operation were indicated as the A group. 26 VDT workers were divided into two groups at random. The B group (13 persons) was orally administered 5 mg of astaxanthin/day for 4 consecutive weeks while the C group (13 persons) was orally administered a placebo for 4 consecutive weeks. No significant difference was recognized in age among the three groups.
(§2) A double-blind test was conducted for the B and C groups.
Also, 26 workers were selected who had been engaged in a VDT operation for 4 hours per day, for 5 days (Monday to Friday every week) per week and for a year or more. […]
The eye-accommodability was evaluated by measurement of the near and far points.
The near point was measured with a D'Acomo apparatus (binocular opening constant point refraction near point ruler, a product of World Optical Corporation) according to the Uozato et al' method (Uozato H, Nagakawa A, Hirai H, Saishin M: A new near-point ruler using constant dioptric stimulus. Folia Ophthalmol Jpn 1988;39:1247-1248).
The far point was measured in the best-corrected refraction for each of the subjects.
The eye-accommodability (dioptres) was calculated by subtracting the far point (dioptres) from the near point (dioptres).
The data on before and after administration were analyzed statistically using a paired t-test. […]

[2] = test system: VDT workers; experiment: Example 2: eyesight at 5 m and 35 cm using a Landolt ring; settings: B group, 5 mg/day orally for 4 weeks
Description: (§3) Also, 26 workers were selected who had been engaged in a VDT operation for 4 hours per day, for 5 days (Monday to Friday every week) per week and for a year or more. Their eyes were better than twenty-twenty (20/20). All of them wore eyeglasses for accommodation during the VDT operation.
(§4) A double-blind test was conducted with respect to the VDT workers. The VDT workers were divided into an astaxanthin-administration group (n=13, B group) and placebo-administration group (n=13, C group). There was no difference in age among the three groups (Table 2 shown below).
(§5) An astaxanthin capsule (5 mg/capsule) was orally administrated to each of the B group subjects one time a day 30 minutes before supper.
The eyesight was measured at each distance of 5 m and 35 cm using a Landolt ring.

[3] = test system: VDT workers; experiment: Example 2: systemic side effects during 4-week administration; settings: B group, 5 mg/day orally for 4 weeks
Description: as §1, §5

[4] = test system: VDT workers; experiment: Example 2: pattern visual evoked potentials (P100 amplitude and latency)
Description: as §1, §2, §3, §4, §5
(§6) All of these measurement items were conducted with each right eye of the subjects at a.m. 9:00-12:00 on a Saturday.
The pattern visual evoked potential was recorded according to the method established by the International Society for Clinical Electrophysiology of Vision to measure one positive peak strength (P100) and the latency (the difference […] between N75 peak and P100 peak).
(§7) The data on before and after administration were analyzed statistically using a paired t-test. Also, the data for the A and B groups and those for the A and C groups were measured in an unpaired test. The probability value is below 0.05 that is considered to be significant.

[5] = test system: person having subjective symptoms of eyestrain or working for VDT operation; experiment: Example 1: double-blind accommodability test with an accommodometer, test food vs control food for 4 weeks; settings: intake of astaxanthin for 4 consecutive weeks; difference not recognized in control group
From the text: People satisfying the following selection standards were used as subjects.
(1) A person having subjective symptoms of eyestrain or working for VDT operation, (2) 1.0 or more of both eyes in vision after correction. (3) 35-59 years old, (4) persons who do notusually take any medicines or health foods, (5) a person who can keep in compliance with all the test-related requirements and take the medical examinations stipulated by the test method.
Persons who have retinal disorders or cataracts were excluded from the subjects.
A test food with 5 mg /capsule of astaxanthin and a control food with 0 mg /capsule of astaxanthin were prepared. The test was conducted in a double-blind method.
After completion of the accommodability test for the subjects using an accommodometer by which the change in the refraction value (accommodation reaction) during moving object can be measured continuously and objectively, and accommodation abnormalities including VDT syndrome can be detected clearly.
A person in charge of the test prepared a subjects' name-list stratified by sex and the test results and handed it to a controller. The controller prepared an allocation table separating the subjects into test food group and control food group based on the name list. In addition, the controller stuck each label with a subject's name on the test food or control food according to the allocation table. […]

[6] = test system: VDT workers; experiment: Example 2: critical flicker fusion (C.F.F. tester)
Description: as §1, §2, §3, §4, §5, §6
The critical flicker fusion was determined by decreasing the frequency of the signals at a constant speed using a C.F.F. tester (a product of Yagami Co., Ltd.). There was used the average value of the three times value measured by the individual eyes of the subjects.
as §7

[7] = B group baseline, n = 13 eye, mean ± SD
[8] = B group, 5 mg/day orally for 4 weeks, n = 13 eye, mean ± SD
[9] = B group, 5 mg/day orally for 4 weeks, vs before administration

Structure (SMILES): CC1=C(/C=C/C(C)=C/C=C/C(C)=C/C=C/C=C(C)/C=C/C=C(C)/C=C/C2=C(C)C(=O)C(O)CC2(C)C)C(C)(C)CC(O)C1=O (stereo not drawn) [astaxanthin, 3,3′-dihydroxy-β,β-carotene-4,4′-dione]
- Accommodability (D), before administration of astaxanthin ([1]; B group baseline, n = 13 eye (right eye), p<0.05 lower than non-VDT A group (3.7 ± 1.5)): 2.3 ± 1.4 D
- Accommodability (D), after administration of astaxanthin ([1]; B group, 5 mg astaxanthin/day orally for 4 consecutive weeks, n = 13 eye, p<0.01 vs before administration): 2.8±1.6 D
- Change of eyesight at distances of 5 m and 35 cm, before vs after administration [2]: did not appreciably change
- Systemic side effects [3]: no systemic side effects were recognized
- PVEP-P100 Amplitude (μV), before administration of astaxanthin [4, 7]: 5.8±1.7 μV
- PVEP-P100 Latency (msec), before administration of astaxanthin [4, 7]: 102.5 ± 6.9 ms
- PVEP-P100 Amplitude (μV), after administration of astaxanthin [4, 8]: 5.6±1.6 μV
- PVEP-P100 Latency (msec), after administration of astaxanthin [4, 8]: 104 ± 7.4 ms and 104.8 ± 7.4 ms
- Change of amplitude of P100 in pattern visual evoked potentials after administration [4, 9]: did not appreciably change
- Change of latency of P100 in pattern visual evoked potentials after administration [4, 9]: did not appreciably change
- Change of eye-accommodability, before vs after intake [5]: increased in the test food group by a statistically significant difference
- CFF (Hz), before administration of astaxanthin [6, 7]: 39.9 ± 5.3 Hz
- CFF (Hz), after administration of astaxanthin [6, 8]: 38.4 ± 4.8 Hz
- Change of critical flicker fusion after administration [6, 9]: did not (appreciably) change
